Results reported in patent publication US8263651B2, “Use of cis-epoxyeicosatrienoic acids and inhibitors of soluble epoxide hydrolase to treat conditions mediated by PBR, CB2, and NK2 receptors” (The Regents of the University of California, priority 2006, dated 2012).

Target: T1, sEH (Homo sapiens, UniProt P34913)
T1 sequence (P34913 1-555): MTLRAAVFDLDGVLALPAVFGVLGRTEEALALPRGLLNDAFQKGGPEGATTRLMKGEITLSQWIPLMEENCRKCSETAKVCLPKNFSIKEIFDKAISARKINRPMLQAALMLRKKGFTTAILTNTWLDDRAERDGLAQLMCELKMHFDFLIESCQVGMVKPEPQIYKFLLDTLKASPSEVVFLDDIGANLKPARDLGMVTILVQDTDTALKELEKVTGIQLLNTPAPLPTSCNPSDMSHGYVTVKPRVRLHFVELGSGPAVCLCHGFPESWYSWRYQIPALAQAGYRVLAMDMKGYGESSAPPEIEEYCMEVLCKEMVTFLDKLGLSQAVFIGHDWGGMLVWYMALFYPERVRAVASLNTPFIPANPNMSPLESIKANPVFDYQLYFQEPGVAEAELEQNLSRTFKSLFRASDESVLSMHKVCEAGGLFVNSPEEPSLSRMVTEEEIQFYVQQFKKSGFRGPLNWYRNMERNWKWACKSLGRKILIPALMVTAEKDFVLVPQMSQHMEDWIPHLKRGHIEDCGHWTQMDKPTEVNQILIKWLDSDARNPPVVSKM
Assay: sEH inhibition, assay not specified
Assay type: biochemical
Description: Any of a number of standard assays for determining epoxide hydrolase activity can be used to determine inhibition of sEH. For example, suitable assays are described in Gill, et al., Anal Biochem 131:273-282 (1983); and Borhan, et al., Analytical Biochemistry 231:188-200 (1995)). Suitable in vitro assays are described in Zeldin et al., J. Biol. Chem. 268:6402-6407 (1993). Suitable in vivo assays are described in Zeldin et al., Arch Biochem Biophys 330:87-96 (1996). […]
The enzyme also can be detected based on the binding of specific ligands to the catalytic site which either immobilize the enzyme or label it with a probe such as dansyl, fluoracein, luciferase, green fluorescent protein or other reagent. […] The enzyme also can be detected based on the generation of fluorescent products following the hydrolysis of the epoxide. […]

## CCCCCCCCCCCCNC(=O)NC12CC3CC(CC(C3)C1)C2 [ADU, N-Adamantyl-N′-dodecyl urea]
  activity as an inhibitor of sEH: particularly high activity
